ChEMBL document CHEMBL4651402, “Screening of ~5500 FDA-approved drugs and clinical candidates for anti-SARS-CoV-2 activity” (2021)

Tested on: SARS-CoV-2
Assay: microbe, parasite or virus in culture
Settings: Severe acute respiratory syndrome coronavirus 2, Vero C1008, 48 h

| SMILES | IC50 [µM] | IC50 (read-out: pIC50 (converted)) [µM] |
| --- | --- | --- |
| CCOC(=O)[C@H](C)NP(=O)(COCCn1cnc2c(NC3CC3)nc(N)nc21)N[C@@H](C)C(=O)OCC [RABACFOSADINE] | > 20 | > 20 |
| CN(C)CCc1c[nH]c2ccc(C[C@H]3COC(=O)N3)cc12 [ZOLMITRIPTAN] | > 20 | > 20 |
| CN[C@H]1[C@H](O)[C@H](O[C@@H]2[C@@H](O)[C@H](O[C@H]3O[C@H]([C@@H](C)O)[C@@H](O)[C@H](O)[C@H]3N)[C@@H](N)C[C@H]2N)OC[C@@]1(C)O | > 20 | > 20 |
| Cc1cc(C)nc(NS(=O)(=O)c2ccc(N)cc2)n1 [SULFAMETHAZINE] | > 20 | > 20 |
| CC(C)[C@H](O)C(=O)N[C@@H](C)C(=O)N[C@@H]1C(=O)N(C)CCc2ccccc21 | > 20 | > 20 |
| COC(=O)C1=C(C)NC(C)=C(C(=O)OCCN(C)Cc2ccccc2)C1c1cccc([N+](=O)[O-])c1 (configuration not stated) [NICARDIPINE] | > 20 | > 20 |
| CCCCC1C(=O)N(c2ccccc2)N(c2ccccc2)C1=O [PHENYLBUTAZONE] | > 20 | > 20 |
| CN1CCc2cc3c(cc2C1O)OCO3 (configuration not stated) [HYDRASTININE] | > 20 | > 20 |
| O=C(O)CCCCCCC[C@@H](O)[C@@H](O)CCCCCCO | > 20 | > 20 |
| O=C(O)CCCN1CCC[C@H]1COc1ccc(Oc2ccc(Cl)cc2)cc1 | > 20 | > 20 |
| COc1cc(CNC(=O)CCCC/C=C/C(C)C)ccc1O [CAPSAICIN] | > 20 | > 20 |
| CC[N+]1(CC)CCC(OC(=O)C(O)(c2ccccc2)c2ccccc2)C1 (configuration not stated) [BENZILONIUM] | > 20 | > 20 |
| CC(C)Cn1c(=O)n(C)c(=O)c2nc[nH]c21 [ISOBUTYLMETHYLXANTHINE] | > 20 | > 20 |
| NC(=O)CCCCC1CCSS1 (configuration not stated) [THIOCTIC ACID AMIDE] | > 20 | > 20 |
| O=C(OCCN1CCOCC1)c1cccnc1Nc1cccc(C(F)(F)F)c1 [MORNIFLUMATE] | > 20 | > 20 |
| CNCC(O)c1ccc(O)cc1 (configuration not stated) [OXEDRINE] | > 20 | > 20 |
| NC(CSCC(=O)O)C(=O)O (configuration not stated) | > 20 | > 20 |
| Cc1nc(=O)c(C#N)c(NCc2cccnc2)[nH]1 [PELRINONE] | > 20 | > 20 |
| CCN1CCC(=C(c2ccccc2)c2ccccc2)C1 [PRIDEFINE] | > 20 | > 20 |
| C[N+]1(C)CCCC(OC(=O)C(O)(c2ccccc2)c2ccccc2)C1 (configuration not stated) [MEPENZOLATE] | > 20 | > 20 |
| O=C(O)C(O)C(O)C(=O)O (configuration not stated) [TARTARIC ACID] | > 20 | > 20 |

| SMILES | IC50 [µM] | IC50 (read-out: pIC50 (converted)) [µM] |
| --- | --- | --- |
| O=C(O)CCCO [OXYBATE] | > 20 | > 20 |
| O=C(NC1CCN(CCCCC2(C(=O)NCC(F)(F)F)c3ccccc3-c3ccccc32)CC1)c1ccccc1-c1ccc(C(F)(F)F)cc1 [LOMITAPIDE] | > 20 | > 20 |
| COC(=O)c1ccc(O)cc1 [METHYLPARABEN] | > 20 | > 20 |
| O=C(O[C@@H]1Cc2c(O)cc(O)cc2O[C@@H]1c1cc(O)c(=O)c2c(O)c(O)cc([C@H]3Oc4cc(O)cc(O)c4C[C@H]3OC(=O)c3cc(O)c(O)c(O)c3)c2c1)c1cc(O)c(O)c(O)c1 [THEAFLAVIN DIGALLATE] | > 20 | > 20 |
| CC(=O)O[C@H]1CC[C@@]2(C)C(=CC(=O)[C@@H]3[C@@H]2CC[C@]2(C)C(=O)CC[C@@H]32)C1 | > 20 | > 20 |
| N[C@@]1(C(=O)O)CS(=O)(=O)[C@H]2[C@H](C(=O)O)[C@H]21 [LY404039] | > 20 | > 20 |
| COc1cc(N)c(Cl)cc1C(=O)NC1CN2CCC1CC2 (configuration not stated) [ZACOPRIDE] | > 20 | > 20 |
| CCCOc1ccc(C(=O)OCCN(CC)CC)cc1N [PROPARACAINE] | > 20 | > 20 |
| CN(N=O)C(=O)N[C@@H](C=O)[C@@H](O)[C@H](O)[C@H](O)CO.CN(N=O)C(=O)N[C@H]1C(O)O[C@H](CO)[C@@H](O)[C@@H]1O | > 20 | > 20 |
| CC(=O)NS(=O)(=O)c1ccc(NC(=O)c2ccccc2C(=O)O)cc1 | > 20 | > 20 |
| Nc1ccccc1C(=O)CC(N)C(=O)O (configuration not stated) [KYNURENINE] | > 20 | > 20 |
| Oc1cc(O)c2c(c1)O[C@H](c1ccc(O)c(O)c1)[C@@H](O)C2 [CIANIDANOL] | > 20 | > 20 |
| C/N=C(/NC)NCc1ccc(OC)cc1 [MEOBENTINE] | > 20 | > 20 |
| CC[C@H](OC(C)=O)C(C[C@@H](C)N(C)C)(c1ccccc1)c1ccccc1 [BETACETYLMETHADOL] | > 20 | > 20 |
| NC(Cc1ccc(Cl)cc1)C(=O)O (racemic) [FENCLONINE] | > 20 | > 20 |
| O=C1CC[C@H](N2Cc3c(OCc4ccc(CN5CCOCC5)cc4)cccc3C2=O)C(=O)N1 [IBERDOMIDE] | > 20 | > 20 |
| CCC(C(=O)NC(N)=O)c1ccccc1 (configuration not stated) [PHENETURIDE] | > 20 | > 20 |
| CN(CCCCCCCCCCN(C)C(=O)Oc1cccc([N+](C)(C)C)c1)C(=O)Oc1cccc([N+](C)(C)C)c1 | > 20 | > 20 |
| Cc1occc(=O)c1O [MALTOL] | > 20 | > 20 |
| CC(O)(P(=O)(O)O)P(=O)(O)O [ETIDRONIC ACID] | > 20 | > 20 |
| CC(=O)Nc1ccccc1 [ACETANILIDE] | > 20 | > 20 |

| SMILES | IC50 [µM] | IC50 (read-out: pIC50 (converted)) [µM] |
| --- | --- | --- |
| CC[C@H](NC(=O)[C@H](C)NC)C(=O)N1C[C@@H](O)C[C@H]1Cc1c(-c2[nH]c3cc(F)ccc3c2C[C@@H]2C[C@H](O)CN2C(=O)[C@H](CC)NC(=O)[C@H](C)NC)[nH]c2cc(F)ccc12 [BIRINAPANT] | > 20 | > 20 |
| CC(C)OC(=O)[C@H](C)N[P@](=O)(CO[C@H](C)Cn1cnc2c(N)ncnc21)Oc1ccccc1 [TENOFOVIR ALAFENAMIDE] | > 20 | > 20 |
| Cc1ncc(CO)c(CO)c1O [PYRIDOXINE] | > 20 | > 20 |
| CC[C@@H]1C[C@]1(NC(=O)[C@@H]1C[C@@H]2CN1C(=O)[C@H](C(C)(C)C)NC(=O)OCC(C)(C)CCCCc1cccc3c1CN(C3)C(=O)O2)C(=O)NS(=O)(=O)C1CC1 | > 20 | > 20 |
| N[C@@H](C(=O)N[C@@H]1C(=O)N2C(C(=O)O)=C(Cl)CS[C@H]12)c1ccccc1 [CEFACLOR ANHYDROUS] | > 20 | > 20 |
| CN(C)CCN(Cc1ccccc1)c1ccccn1 [TRIPELENNAMINE] | > 20 | > 20 |
| CN(C)CCO [DIMETHYLAMINOETHANOL] | > 20 | > 20 |
| CN(C)CCOC(=O)C(c1ccccc1)C1(O)CCCC1 (configuration not stated) [CYCLOPENTOLATE] | > 20 | > 20 |
| C[C@H]1CN(C2COC2)CCN1c1ccc(Nc2cc(-c3ccnc(N4CCn5c(cc6c5CC(C)(C)C6)C4=O)c3CO)cn(C)c2=O)nc1 [FENEBRUTINIB] | > 20 | > 20 |
| COc1ccc2c3c1O[C@H]1[C@@H](O)C=C[C@H]4[C@@H](C2)NCC[C@@]341 [NORCODEINE] | > 20 | > 20 |
| CC(=O)S[C@@H]1CC2=CC(=O)CCC2(C)C2CCC3(C)C(CC[C@@]34CCC(=O)O4)C21 (some centres not stated) | > 20 | > 20 |
| CN1CCCC(CN2c3ccccc3Sc3ccccc32)C1 (configuration not stated) [MEPAZINE] | > 20 | > 20 |
| O=C(O)c1ccccc1Nc1cccc(C(F)(F)F)c1 [FLUFENAMIC ACID] | > 20 | > 20 |
| Nc1nc(Cl)nc2c1ncn2[C@@H]1C[C@H](O)[C@@H](CO)O1 | > 20 | > 20 |
| c1ccc(OCc2ccc(CCCN3CCOCC3)cc2)cc1 [FOMOCAINE] | > 20 | > 20 |
| CC[C@@]1(c2ccccc2)NC(=O)N(C)C1=O | > 20 | > 20 |
| CC(C)[C@@]1(NC(=O)[C@@H]2C[C@@H]3c4cccc5[nH]cc(c45)C[C@H]3N(C)C2)O[C@@]2(O)[C@@H]3CCCN3C(=O)[C@H](C)N2C1=O | > 20 | > 20 |
| O=C1NC(O)CCN1[C@@H]1O[C@H](CO)[C@@H](O)[C@H]1O (some centres not stated) [TETRAHYDROURIDINE] | > 20 | > 20 |
| CN(C)CCCSc1ccccc1NC(=O)/C=C/c1ccccc1 [CINANSERIN] | > 20 | > 20 |
